Source: patent US20250161290A1, “CO-CRYSTALS” (CereSpir Incorporated, priority 2021, published 2025)
In brackets after ≈: the same amount, converted by molar mass. Entries after “also recorded” stand apart in the source; their conditions may differ.

Key:
[1] = Dynamic Vapor Sorption (DVS) water sorption/desorption; assay type: physicochemical; conditions: for Mass Change: 25° C.
Experimental: (§1) Samples are analyzed using a TA Instruments Q5000SA gravimetric water sorption analyzer. The relative humidity (RH) is adjusted in 10% RH increments between 5-95% (±1% RH) at 25° C. (±0.5%° C.). The mass of a sample is continuously monitored and recorded with respect to RH and time with criteria for mass equilibrium set as a percent mass change <0.0100 for 5 minutes with a time limit of 720 minutes per step. The humidity is controlled by mixing dry and wet nitrogen streams with a total flow rate of 200 mL/min. The instrument control and data analysis are operated under Advantage for Q Series and Universal Analysis software, respectively.

[2] = Solubility assessment of CSP-1103 in organic solvents (qualitative); assay type: physicochemical; conditions: organic solvent or mixture, thermodynamic from solid, qualitative solubility at 0.2 M, gentle heating 45° C. 1 minute if required
Experimental: The solubility assessment of CSP-1103 was then performed. Approximately 0.05 mmol of CSP-1103 was weighed out into a 1-dram vial, enough solvent was added to achieve a 0.2 M concentration, and if required, gentle heating was applied at 45° C. for 1 minute. […] After 12 hours, observations were made to determine if the API had remained in solution.

[3] = Coformer and CSP-1103 aqueous solubility assessment (qualitative); assay type: physicochemical; conditions: water, thermodynamic from solid, 0.05 M aqueous concentration, gentle heating at 45° C. for 1 minute
Experimental: In a 1-dram vial, enough solvent was added to achieve a 0.05 M aqueous concentration along with some gentle heating at 45° C. for 1 minute to determine if the material would completely dissolve. After 24 hours, observations were made to determine if the material had remained in solution.

[4] = Thermogravimetric analysis (TGA), degradation onset; assay type: physicochemical; conditions: 10° C. per minute, nitrogen purge
Experimental: TGA data are collected using a TA Instruments Discovery TGA equipped with an autosampler. Typically, 2-5 mg of sample is placed in a pre-tared, Tzero aluminum pan either as a hermetically sealed pan which would be automatically punched open before sample loading for analysis, or as an open pan. A 10° C. per minute ramp rate from ambient temperature to 375° C. using a 25 mL/min nitrogen purge is used. The instrument control and data analysis are operated under TRIOS software.

[5] = XRPD of pre-exposed and post-exposed DVS samples (solid form stability); assay type: physicochemical; conditions: two DVS sorption/desorption cycles, 5-95% RH, 25° C.
Experimental: X-ray powder diffraction analyses are obtained using a BRUKER D8 ADVANCE equipped with a Cu radiation source operated at 40 kV and 40 mA (λ=1.54 Å after Ni filtering) configured in a Bragg-Brentano geometry, equipped with a 90-position AUTO-CHANGER and a silicon strip detector (SSD160-2). A coupled theta-two theta continuous PSD (Position Sensitive Device) fast scan from 4 to 40 degrees are collected over approximately 32 minutes (0.5 sec/0.01° step). A sample is placed onto a polished zero-background silicon wafer by gently distributing onto the flat surface and is analyzed as a flat plate specimen.
as §1

[6] = Solubility assessment of CSP-1103 in organic solvents (qualitative); assay type: physicochemical; conditions: organic solvent or mixture, thermodynamic from solid
[7] = tested on: patients with mild cognitive impairment (MCI); conditions: listed as itanapraced, cited from earlier work
rats after TBI = conditions: cited from earlier work
[8] = in vivo, cited from earlier work
[9] = Consolidated qualitative solubility results (Tables 6 and 8); conditions: for consolidated solubility result: Table 6; for qualitative solvent solubility overlaid with cocrystallization screens' results: Table 8, numbers are molar concentrations pending investigation
[10] = Phase 2, MCI patients, CSF / brain

Mass Change ([1]; Cycle 1 of 2, Adsorption, RH 5 to 95%): 1.10% | Mass Change ([1]; Cycle 1 of 2, Desorption, RH 95 to 5%): −1.11% | Mass Change ([1]; Cycle 2 of 2, Adsorption, RH 5 to 95%): 1.13% | Mass Change ([1]; Cycle 2 of 2, Desorption, RH 95 to 5%): −1.13% | hygroscopicity classification ([1]; at 95% RH, Ph. Eur. 9.0 (slightly: <2% and ≥0.2%; non: <0.2%)): slightly hygroscopic | average water sorbed or desorbed ([1]; between 5-95% RH): 1.1±0.0% | solubility ([2]; MTBE): < 200 mM | solubility ([2]; acetone): < 200 mM | solubility ([2]; acetonitrile): < 200 mM | solubility ([2]; ethanol): < 200 mM | solubility [3]: < 50 mM | degradation start by TGA [4]: > 200 °C | solid form change after DVS exposure (XRPD pre- vs post-exposed) [5]: no solid form change | solid form change after DVS exposure (XRPD pre- vs post-exposed) ([5]; listed as CSP): no solid state form changes | solubility ([6]; MTBE, qualitative solubility at 0.1 M, gentle heating if required): > 100 mM | solubility ([6]; acetone, qualitative solubility at 0.05 M, gentle heating if required): > 50 mM | solubility ([6]; acetone, qualitative solubility at 0.1 M, gentle heating if required): < 100 mM | solubility ([6]; acetonitrile, qualitative solubility at 0.05 M, gentle heating if required): < 50 mM | solubility ([6]; acetonitrile, qualitative solubility at 0.1 M, gentle heating if required): < 100 mM | solubility ([6]; ethanol, qualitative solubility at 0.05 M, gentle heating if required): > 50 mM | solubility ([6]; ethanol, qualitative solubility at 0.1 M, gentle heating if required): < 100 mM | solubility ([6]; ethyl acetate, qualitative solubility at 0.1 M, gentle heating if required): > 100 mM | solubility ([6]; ethyl acetate, qualitative solubility at 0.2 M, gentle heating 45° C. 1 minute if required): < 200 mM | solubility ([6]; methanol, qualitative solubility at 0.05 M, gentle heating if required): > 50 mM | solubility ([6]; methanol, qualitative solubility at 0.1 M, gentle heating if required): < 100 mM | solubility ([6]; methanol, qualitative solubility at 0.2 M, gentle heating 45° C. 1 minute if required): < 200 mM | solubility (physchem; MTBE, organic solvent or mixture): 100 mM (≈ 32.5 mg/mL) | solubility (physchem; acetonitrile, organic solvent or mixture): < 50 mM | solubility (physchem; ethyl acetate, organic solvent or mixture): 100 mM (≈ 32.5 mg/mL) | solubility (physchem; water): < 50 mM | consolidated solubility result ([9]; MTBE): ✓ | qualitative solvent solubility overlaid with cocrystallization screens' results ([9]; acetone (BP 56° C.)): 50 mM | consolidated solubility result ([9]; acetone): ✓ | qualitative solvent solubility overlaid with cocrystallization screens' results ([9]; ethanol (BP 79° C.)): 50 mM | consolidated solubility result ([9]; ethanol): ✓ | consolidated solubility result ([9]; ethyl acetate): ✓ | qualitative solvent solubility overlaid with cocrystallization screens' results ([9]; methanol (BP 65° C.)): 50 mM | consolidated solubility result ([9]; methanol): ✓
Compound: O=C(O)C1(c2ccc(-c3ccc(Cl)c(Cl)c3)c(F)c2)CC1 [CSP-1103, 1-(3′,4′-dichloro-2-fluoro[1,1′-biphenyl]-4-yl)-cyclopropanecarboxylic acid]
safety and tolerability ([7]; Phase 2, MCI patients treated up to two years): good safety and tolerability; also recorded: well tolerated | TNF-α (neuroinflammatory mediator) [7, 10]: beneficial dose-related CSF differences; also recorded: dose-related statistically significant reductions | soluble CD40 ligand (neuroinflammatory mediator) [7, 10]: beneficial dose-related CSF differences; also recorded: dose-related statistically significant reductions | total tau (marker of neurodegeneration) [7, 10]: beneficial dose-related CSF differences; also recorded: dose-related statistically significant reductions | cognitive function ([7]; throughout the duration of the trial): stable cognition; also recorded: stable cognitive function | accumulation of hypertrophic microglia in the injured brain (rats after TBI): prevented the accumulation of hypertrophic microglia | acute lung injury (rats after TBI): attenuated | neurological injury (rats after TBI): attenuated | oral bioavailability ([8]; po): good oral bioavailability | penetration into the brain [8]: substantial penetration into the brain | plasma half-life [8]: long plasma half-life
